{
  "source": "ChEMBL document CHEMBL5528053",
  "about": "“Discovery of Novel Isoquinoline Analogues as Dual Tubulin Polymerization/V-ATPase Inhibitors with Immunogenic Cell Death Induction” (J Med Chem, 2024)",
  "key": {"Tubulin (Homo sapiens) [1]": {"target": "T1, Tubulin (Homo sapiens) (UniProt P68371+Q9H4B7+P0DPH7+P68366+Q13509+Q71U36+P04350+Q3ZCM7+P07437+P68363+Q9BQE3+Q6PEY2+Q13885+Q9BVA1+Q9BUF5)", "assay": "Disruption of microtubule network in human PC-3 cells at 50 to 200 nM incubated for 6 to 24 hrs by immunofluorescence staining based confocal microscopy analysis relative to control", "type": "cell-based", "conditions": "dose 50-200 nM, time 6-24 hrs"}, "Tubulin (Homo sapiens) [2]": {"target": "T1, Tubulin (Homo sapiens)", "assay": "Inhibition of tubulin polymerization (unknown origin) assessed as reduction in intracellular AC-alpha-tubulin at 50 to 200 nM measured for 6 hrs by […] Western blot analysis", "type": "cell-based", "conditions": "PC-3, dose 50-200 nM"}, "[3]": {"assay": "Toxicity in ICR mouse assessed as effect on kidney at 10 mg/kg, ip measured for 14 days by H and E staining based analysis", "type": "organism-based", "conditions": "in vivo, 336 h, time 14 day"}, "[4]": {"assay": "Toxicity in ICR mouse assessed as effect on CK level at 10 mg/kg, ip measured for 14 days", "type": "organism-based", "conditions": "in vivo, 336 h, time 14 day"}, "PC-3 [5]": {"tested_on": "PC-3", "assay": "Upregulation of detyrosinated-alpha tubulin expression in human PC-3 cells incubated for 24 hrs by Western blot analysis", "type": "functional, cell-based", "conditions": "dose 50-200 nM"}, "PC-3 [6]": {"tested_on": "PC-3", "assay": "Antiproliferative activity against human PC-3 cells assessed as inhibition of cell growth after 72 hrs by MTT assay", "type": "functional, cell-based", "conditions": "PC-3, 72 h"}, "RM1 [7]": {"tested_on": "RM1", "assay": "Anticancer activity against mouse RM1 cells assessed as increase in CRT expression at 400 nM measured after 24 hrs by flow cytometry analysis", "type": "functional, cell-based"}, "RM1 [8]": {"tested_on": "RM1", "assay": "Antitumor immunity against mouse RM1 cells homografted in C57BL/6 mouse model assessed as increase in activation of tumor infiltrating lymphocytes in spleen at 5 to 10 mg/kg, iv administered every two days for 14 days by flow cytometry analysis", "type": "functional, organism-based", "conditions": "dose 5-10 mg/kg, time 14.0 day"}, "PC-3 [9]": {"tested_on": "PC-3", "assay": "Induction of immunogenic cell death in human PC-3 cells assessed as effect on CRT expression at 50 to 200 nM", "type": "functional, cell-based", "conditions": "dose 50-200 nM"}, "PC-3 [10]": {"tested_on": "PC-3", "assay": "Induction of apoptosis in human PC-3 cells assessed as increase in ADP-ribose level at 50 to 200 nM incubated for 24 hrs by Western blot analysis", "type": "functional, cell-based", "conditions": "dose 50-200 nM"}, "RM1 [11]": {"tested_on": "RM1", "assay": "Antitumor immunity against mouse RM1 cells homografted in C57BL/6 mouse model assessed as increase in tumor infiltrating CD3+CD8+T cells (CTLs) in spleen at 5 to 10 mg/kg, iv administered every two days for 14 days by flow cytometry analysis", "type": "functional, organism-based", "conditions": "dose 5-10 mg/kg, time 14.0 day"}, "PC-3 [12]": {"tested_on": "PC-3", "assay": "Induction of cell cycle arrest in human PC-3 cells assessed as accumulation of cells at G1 phase at 100 nM incubated for 24 hrs by flow cytometry analysis (reference value: 49.4%)", "type": "functional"}, "PC-3 [13]": {"tested_on": "PC-3", "assay": "Induction of apoptosis in human PC-3 cells measured after 24 hrs by annexin V-FITC and PI staining based flow cytometry analysis", "type": "functional, cell-based", "conditions": "dose 50-200 nM"}, "[14]": {"assay": "Toxicity in ICR mouse assessed as effect on CRE level at 10 mg/kg, ip measured for 14 days", "type": "organism-based", "conditions": "in vivo, 336 h, time 14 day"}, "[15]": {"target": "Tubulin beta (Homo sapiens) (UniProt P68371+Q9H4B7+Q13509+P04350+Q3ZCM7+P07437+Q13885+Q9BVA1+Q9BUF5+A6NNZ2)", "assay": "Binding affinity to beta-tubulin colchicine binding site in human PC-3 cells assessed as inhibition of EBI-beta-tubulin adduct band formation preincubated for 2 hrs followed by EBI addition measured after 1.5 hrs by EBI competition based Western blotting analysis", "type": "cell-based", "conditions": "dose 1-100 µM, time 3.5 hrs"}, "PC-3 [16]": {"tested_on": "PC-3", "assay": "Induction of intracellular ROS generation in human PC-3 cells incubated for 24 hrs by DCFH-DA staining based confocal microscopy based analysis", "type": "functional, cell-based", "conditions": "dose 50-200 nM"}, "A549": {"tested_on": "A549", "assay": "Antiproliferative activity against human A549 cells assessed as inhibition of cell growth after 72 hrs by MTT assay", "type": "functional, cell-based", "conditions": "A549, 72 h"}, "PC-3 [17]": {"tested_on": "PC-3", "assay": "Induction of apoptosis in human PC-3 cells assessed as viable cells at 50 nM measured after 24 hrs by annexin V-FITC and PI staining based flow cytometry analysis (reference value: 90.6%)", "type": "functional", "conditions": "read-out: Activity"}, "PC-3 [18]": {"tested_on": "PC-3", "assay": "Induction of apoptosis in human PC-3 cells assessed as late apoptotic cells at 50 nM measured after 24 hrs by annexin V-FITC and PI staining based flow cytometry analysis (reference value: 2.37%)", "type": "functional"}, "Cell membrane": {"tested_on": "Cell membrane", "assay": "Induction of mitochondrial membrane potential loss in human PC-3 cells assessed as increase in green fluorescence at 50 to 200 nM incubated for 24 hrs by JC-1 staining based confocal microscopy analysis", "conditions": "dose 50-200 nM"}, "PC-3 [19]": {"tested_on": "PC-3", "assay": "Induction of apoptosis in human PC-3 cells assessed as increase in p-bim-EL level at 50 to 200 nM incubated for 24 hrs by Western blot analysis", "type": "functional, cell-based", "conditions": "dose 50-200 nM"}, "[20]": {"assay": "Antitumor immunity against mouse RM1 cells homografted in C57BL/6 mouse model assessed as increase in tumor infiltrating lymphocytes at 5 mg/kg, iv administered every two days for 14 days by flow cytometry analysis (reference value: 5.26%)", "type": "functional", "conditions": "time 14 day"}, "RM1 [21]": {"tested_on": "RM1", "assay": "Antitumor immunity against mouse RM1 cells homografted in C57BL/6 mouse model assessed as increase in tumor infiltrating helper T lymphocytes in spleen at 5 to 10 mg/kg, iv administered every two days for 14 days by flow cytometry analysis", "type": "functional, organism-based", "conditions": "dose 5-10 mg/kg, time 14.0 day"}, "PC-3 [22]": {"tested_on": "PC-3", "assay": "Downregulation of acetyl-alpha tubulin expression in human PC-3 cells incubated for 24 hrs by Western blot analysis", "type": "functional, cell-based", "conditions": "dose 50-200 nM"}, "PC-3 [23]": {"tested_on": "PC-3", "assay": "Induction of immunogenic cell death in human PC-3 cells assessed as increase in CRT translocation to cell surface at 200 nM measured after 12 hrs in presence of NAC by DAPI staining based analysis", "type": "functional"}, "PC-3 [24]": {"tested_on": "PC-3", "assay": "Inhibition of V-ATPase activity in human PC-3 cells at 400 nM measured after 24 hrs by colorimetric assay relative to control", "type": "cell-based"}, "PC-3 [25]": {"tested_on": "PC-3", "assay": "Induction of apoptosis in human PC-3 cells assessed as late apoptotic cells at 100 nM measured after 24 hrs by annexin V-FITC and PI staining based flow cytometry analysis (reference value: 2.37%)", "type": "functional"}, "[26]": {"assay": "Antitumor immunity against mouse RM1 cells homografted in C57BL/6 mouse model assessed as increase in tumor infiltrating lymphocytes at 10 mg/kg, iv administered every two days for 14 days by flow cytometry analysis (reference value: 5.26%)", "type": "functional", "conditions": "time 14 day"}, "[27]": {"assay": "Antitumor immunity against mouse RM1 cells homografted in C57BL/6 mouse model assessed as increase in tumor infiltrating helper T lymphocytes at 10 mg/kg, iv administered every two days for 14 days by flow cytometry analysis (reference value: 6.59%)", "type": "functional", "conditions": "time 14 day"}, "PC-3 [28]": {"tested_on": "PC-3", "assay": "Induction of apoptosis in human PC-3 cells assessed as necrotic cells at 200 nM measured after 24 hrs by annexin V-FITC and PI staining based flow cytometry analysis (reference value: 6.01%)", "type": "functional"}, "PC-3 [29]": {"tested_on": "PC-3", "assay": "Inhibition of V-ATPase activity in lysosomes of human PC-3 cells assessed as decrease in fluorescence at 50 to 200 nM incubated for 24 hrs by acridine orange staining based inverted fluorescent microscopic analysis", "type": "subcellular", "conditions": "Lysosome, dose 50-200 nM"}, "[30]": {"assay": "Anticancer activity against mouse RM1 cells assessed as increase in mean fluorescence intensity at 400 nM measured after 24 hrs by flow cytometry analysis (reference value: 7.40+/-3.96 )", "type": "functional"}, "PC-3 [31]": {"tested_on": "PC-3", "assay": "Induction of cell cycle arrest in human PC-3 cells assessed as accumulation of cells at S phase at 100 nM incubated for 24 hrs by flow cytometry analysis (reference value: 31.3%)", "type": "functional"}},
  "note": "pIC50: −log10 of the molar value. Calls of active or inactive are those of the source. The calls are words filed in the database; no cut-off is given here.",
  "data": [
    {"smiles": "COc1cc(-c2nc(C(N)=O)cc3cc4c(cc23)OCCO4)cc(Br)c1OC", "values": [
      {"measurement": "Activity", "setting": "Tubulin (Homo sapiens) [1]", "value": "Active"},
      {"measurement": "inhibition", "setting": "Tubulin (Homo sapiens) [2]", "value": "Active"},
      {"measurement": "Activity", "setting": "[3]", "value": "Non-Toxic"},
      {"measurement": "Activity", "setting": "[4]", "value": "Non-Toxic"},
      {"measurement": "Activity", "setting": "PC-3 [5]", "value": "Dose-Dependent Effect"},
      {"measurement": "pIC50", "setting": "PC-3 [6]", "value": 7.22},
      {"measurement": "Activity", "setting": "RM1 [7]", "value": "Active"},
      {"measurement": "Activity", "setting": "RM1 [8]", "value": "Active"},
      {"measurement": "Activity", "setting": "PC-3 [9]", "value": "Active"},
      {"measurement": "Activity", "setting": "PC-3 [10]", "value": "Active"},
      {"measurement": "Activity", "setting": "RM1 [11]", "value": "Active"},
      {"measurement": "Activity", "setting": "PC-3 [12]", "value": 34.1, "unit": "%"},
      {"measurement": "Activity", "setting": "PC-3 [13]", "value": "Dose-Dependent Effect"},
      {"measurement": "Activity", "setting": "[14]", "value": "Non-Toxic"},
      {"measurement": "Activity", "setting": "[15]", "value": "Dose-Dependent Effect"},
      {"measurement": "Activity", "setting": "PC-3 [16]", "value": "Dose-Dependent Effect"},
      {"measurement": "pIC50", "setting": "A549", "value": 7.05},
      {"measurement": "viability at 0.05 µM", "setting": "PC-3 [17]", "value": 87.6, "unit": "%"},
      {"measurement": "Activity", "setting": "PC-3 [18]", "value": 3.51, "unit": "%"},
      {"measurement": "Activity", "setting": "Cell membrane", "value": "Active"},
      {"measurement": "Activity", "setting": "PC-3 [19]", "value": "Active"},
      {"measurement": "Activity", "setting": "[20]", "value": 7.01, "unit": "%"},
      {"measurement": "Activity", "setting": "RM1 [21]", "value": "Active"},
      {"measurement": "Activity", "setting": "PC-3 [22]", "value": "Dose-Dependent Effect"},
      {"measurement": "Activity", "setting": "PC-3 [23]", "value": "inactive"},
      {"measurement": "inhibition", "setting": "PC-3 [24]", "value": 60, "unit": "%"},
      {"measurement": "Activity", "setting": "PC-3 [25]", "value": 10.3, "unit": "%"},
      {"measurement": "Activity", "setting": "[26]", "value": 8.03, "unit": "%"},
      {"measurement": "Activity", "setting": "[27]", "value": 14.2, "unit": "%"},
      {"measurement": "Activity", "setting": "PC-3 [28]", "value": 6.91, "unit": "%"},
      {"measurement": "inhibition", "setting": "PC-3 [29]", "value": "Active"},
      {"measurement": "Flu intensity", "setting": "[30]", "value": 151.3},
      {"measurement": "Activity", "setting": "PC-3 [31]", "value": 22.3, "unit": "%"}
    ]}
  ]
}
